Laboratory results reported in US20090076092A1, “METHOD FOR DISRUPTING REPRODUCTIVE PERFORMANCE OF ARTHROPODS” (priority 2006, published 2009).

Columns and labels:
[1] = test system: beet armyworm (Spodoptera exigua); assay: Test F: oviposition and egg hatch of treated beet armyworm adults; type: in vivo; details: for % of reduction: oviposition versus control; for No. neonates: total from successful egg hatch
Text: For evaluating the reproductive performance effects on beet armyworm (Spodoptera exigua), each test unit consisted of one pair of adult (female and male) Spodoptera exigua moths. To obtain the adult moths, pupae of approximately the same age (±1 day) were sexed and placed in individual containers until adults emerged. After emergence, the test insects were placed in a meshed cage.
Sub-lethal concentrations of Compound 1 on beet armyworm were defined based on a preliminary study using rates of 12.5, 25, 50 and 100 ppm.
The caged adults were sprayed with test solutions of the designated treatments using a compressed air-propelled (moving) belt sprayer calibrated at 0.7 m/sec (to deliver a flow rate was ca. 5.5 mL/sec), at 207 kPa, using nozzle 8001E Tee Jet flat fan spray nozzle positioned 18 cm above the test units. Each treatment had 12 replicates (i.e. 12 adult females and 12 adult males were used per treatment).
One day after treatment, a treated male and female (one each) were placed in a cage made from a 300 mL clear plastic cup covered with screened cloth and allowed to copulate. A cotton wick/plug soaked with 10% sucrose solution was supplied in each cage as a diet source.
The number of eggs laid and number of eggs hatched were counted at 3, 4, 5 and 6 days after treatment (DAT), which represented the typical period in which female moths actively produce viable eggs. The pair of moths was transferred to a new cage after each evaluation. To evaluate the number of egg hatched, the copulation cages containing eggs were saved and maintained in a growth chamber at 27° C., 50% relative humidity and 16 hours of light per day.
The raw data were analyzed using Fisher's LSD tests for means separation. […] The percent of reduction was derived by dividing the number of eggs from each treatment by the number of eggs from the control, subtracting the quotient from 1, and then multiplying by 100%.

[2] = test system: cotton bollworm; assay: Preliminary dose-response curve on cotton bollworm; type: in vivo, Helicoverpa armigera; details: cotton bollworm adults; preliminary dose-response curve at 10, 25, 50, 80 and 100 ppm
Text: (§1) The sub-lethal concentrations or doses used in the various tests for the specific pest species and populations tested in the context of the present invention were estimated from multiple-rate, dose-finding tests to determine the control rates and activity break rates. […] Therefore, depending on the target pest species, either the LC50 or a suitable concentration between LC50 and LC20 was selected as the sub-lethal dose. The specific procedures used to select the respective doses are described in each Test.
Sub-lethal rates of Compound 1 on cotton bollworm were estimated based on a preliminary dose-response curve using rates of 10, 25, 50, 80 and 100 ppm. […] Three treatments consisted of test solutions containing Compound 1 at 10, 20 and 30 ppm as well as a control sprayed with water without test compound.

[3] = test system: diamondback moth; assay: Previous laboratory studies of diamondback moth mortality; type: in vivo; details: Plutella xylostella, read-out: mortality of the diamondback moth (LC20)
Text: as §1
(§2) In addition, a control without test compound was included.

[4] = test system: diamondback moth (Plutella xylostella); assay: Test G: number of eggs (fecundity) of adult diamondback moth; type: in vivo; details: 10 ppm, control itself gave very few eggs
Text: For evaluating the reproductive performance effects on diamondback moth (Plutella xylostella), a minimum of 120 larvae of diamondback moth of each sex were used. Male and female individuals of late instar larvae were separated and caged in individual containers containing Chinese kale. Male diamondback moths were identified by a white dot on the abdomen at the late instar larval stage. When pupae emerged, each pupa was caged separately until it emerged as adult.
as §2
Groups of 40 newly emerged (<24 hours) moths of the same sex were placed inside a meshed cage. The caged adult moths were then sprayed with the test solution, using a CO2 backpack sprayer at 500 L/Ha. For the control treatment, the adults were sprayed with water at a similar spray volume. The groups of treated individuals were then transferred into a clean container with a source of adult diet (i.e. a cotton wick soaked in 10% sucrose solution). Separate containers were used for different groups of treated insects. One day after treatment, the numbers of live, moribund and dead adults were counted. One live treated male and one live treated female were placed together in a copulation cage, which was a 300 mL clear plastic cup covered with nylon screen supplied with an adult diet source of 10% sucrose solution.
Each pair of virgin adults was a replicate, and each treatment consisted of 10 to 20 replicates. Every day each pair of moths was moved to a new cup supplied with a diet of 10% sucrose solution.
The number of eggs laid per female moth was counted daily during the two days when the female moths actively produced viable eggs. The results, listed in Table G, indicate that no meaningful comparative information can be inferred, as the even the Control provided very few eggs per female moth; this indicates a systemic reproduction problem from unknown causes. However, had the Control worked, we expect to see the reproductive performance effects on diamondback moth.

CNC(=O)c1cc(Cl)cc(C)c1NC(=O)c1cc(Br)nn1-c1ncccc1Cl [Compound 1, 3-bromo-N-[4-chloro-2-methyl-6-[(methylamino)carbonyl]phenyl]-1-(3-chloro-2-pyridinyl)-1H-pyrazole-5-carboxamide]
% hatched ([1]; 12.5 ppm, 3 DAT): 83%
No. eggs ([1]; 12.5 ppm, 3 DAT): 782 b
% of reduction ([1]; 12.5 ppm, 3 DAT): 66%
No. neonates ([1]; 12.5 ppm, 3 DAT): 647 b
% hatched ([1]; 12.5 ppm, 4 DAT): 82%
No. eggs ([1]; 12.5 ppm, 4 DAT): 315 b
% of reduction ([1]; 12.5 ppm, 4 DAT): 66%
No. neonates ([1]; 12.5 ppm, 4 DAT): 257 b
% hatched ([1]; 12.5 ppm, 5 DAT): 60%
No. eggs ([1]; 12.5 ppm, 5 DAT): 256 b
% of reduction ([1]; 12.5 ppm, 5 DAT): 77%
No. neonates ([1]; 12.5 ppm, 5 DAT): 154 b
% hatched ([1]; 12.5 ppm, 6 DAT): 41%
No. eggs ([1]; 12.5 ppm, 6 DAT): 219 b
% of reduction ([1]; 12.5 ppm, 6 DAT): 73%
No. neonates ([1]; 12.5 ppm, 6 DAT): 90 b
% hatched ([1]; 20 ppm, 3 DAT): 31%
No. eggs ([1]; 20 ppm, 3 DAT): 208 b
% of reduction ([1]; 20 ppm, 3 DAT): 91%
No. neonates ([1]; 20 ppm, 3 DAT): 65 b
% hatched ([1]; 20 ppm, 4 DAT): 0%
No. eggs ([1]; 20 ppm, 4 DAT): 134 bc
% of reduction ([1]; 20 ppm, 4 DAT): 91%
No. neonates ([1]; 20 ppm, 4 DAT): 0 b
% hatched ([1]; 20 ppm, 5 DAT): 0%
No. eggs ([1]; 20 ppm, 5 DAT): 132 b
% of reduction ([1]; 20 ppm, 5 DAT): 89%
No. neonates ([1]; 20 ppm, 5 DAT): 0 b
% hatched ([1]; 20 ppm, 6 DAT): 0%
No. eggs ([1]; 20 ppm, 6 DAT): 109 b
% of reduction ([1]; 20 ppm, 6 DAT): 87%
No. neonates ([1]; 20 ppm, 6 DAT): 0 b
% hatched ([1]; 31 ppm, 3 DAT): 0%
No. eggs ([1]; 31 ppm, 3 DAT): 61 b
% of reduction ([1]; 31 ppm, 3 DAT): 97%
No. neonates ([1]; 31 ppm, 3 DAT): 0 b
% hatched ([1]; 31 ppm, 4 DAT): 0%
No. eggs ([1]; 31 ppm, 4 DAT): 29 c
% of reduction ([1]; 31 ppm, 4 DAT): 97%
No. neonates ([1]; 31 ppm, 4 DAT): 0 b
% hatched ([1]; 31 ppm, 5 DAT): 0%
No. eggs ([1]; 31 ppm, 5 DAT): 91 b
% of reduction ([1]; 31 ppm, 5 DAT): 92%
No. neonates ([1]; 31 ppm, 5 DAT): 0 b
% hatched ([1]; 31 ppm, 6 DAT): 0%
No. eggs ([1]; 31 ppm, 6 DAT): 108 b
% of reduction ([1]; 31 ppm, 6 DAT): 87%
No. neonates ([1]; 31 ppm, 6 DAT): 0 b
number of eggs (fecundity) and number of neonates (fertility) versus control ([1]; all the tested rates (12.5, 20, 31 ppm), all the observation dates): significant reductions
LC20 [2]: 18 ppm
LC50 [2]: 33 ppm
mortality at 10 ppm [3]: ~20%
No. of eggs per female moth ([4]; 1 DAT): 0
No. of eggs per female moth ([4]; 2 DAT): 2.2
